The text below walks through data of patent US7638505B2, “Organophosphoric derivatives useful as anti-parasitic agents” (priority 2005, dated 2009).

The structures appear in SMILES notation. Like-named read-outs stand apart in the source and are kept apart here.

Data set [1] concerns Plasmodium falciparum strain Dd2. Briefly: in vitro anti-malarial activity, [3H]hypoxanthine incorporation, strain Dd2. Type of data set: cell-based. Conditions: for activity in the Dd2 cell line with respect to the reference compounds fosmidomycin and FR900098: same conditions, similar experimental setup. As for the experimental part: (§1) The in vitro anti-malarial activity of some of the compounds prepared in example 1 was determined as follows. Intraerythrocytic stages of the Plasmodium falciparum strains 3D7 and Dd2 were respectively incubated with serial dilutions of the relevant compounds and the viability of the parasites was assessed by their ability to incorporate [^3H]hypoxanthine into DNA. Inhibition results were expressed as IC50.

The subject of data set [2] is Plasmodium falciparum strain 3D7. Briefly: in vitro anti-malarial activity, [3H]hypoxanthine incorporation, strain 3D7. The data set is classed as cell-based. Conditions: P. falciparum strain 3D7, intraerythrocytic stages. As for the experimental part: as §1
A further data set deals with Plasmodium falciparum. Conditions: cited from earlier work.
The test system of the next data set is Plasmodium vinckei. The conditions noted are these: cited from earlier work.
For data set [3] the following is noted: in vivo; cited from earlier work.
In data set [4] the test system is acute, uncomplicated Plasmodium falciparum malaria. Conditions: clinical trials, Gabon and Thailand; cited from earlier work.
Data set [5] deals with Plasmodium falciparum strain Dd2. Conditions: P. falciparum Dd2, WO 2005/048715; cited from earlier work.
Setting [6] is: Plasmodium falciparum, DD2, read-out: IC50 (μM) Dd2.

In the case of `COc1ccc(C(CCN(O)C=O)P(=O)(O)O)cc1` (centres unmarked) [Compound 1c, 3-(N-hydroxyformamido)-1-(4-methoxyphenyl)propylphosphonic acid], the 50% inhibitory concentration (IC50) in data set [1] (setting [6]) turned out to be 0.2 µM; in data set [2] (Plasmodium falciparum), 0.36 µM.

For the compound `O=CN(O)CCC(c1ccc(Cl)c(Cl)c1)P(=O)(O)O` (centres unmarked) [Compound 1e, 3-(N-hydroxyformamido)-1-(3,4-dichlorophenyl)propylphosphonic acid], the IC50 in data set [1] (Plasmodium falciparum, P. falciparum strain Dd2, intraerythrocytic stages, read-out: IC50 (μM) Dd2) came out at 0.028 µM; in data set [2] (Plasmodium falciparum), 0.09 µM. Besides, the “in vitro antimalarial activity relative to fosmidomycin” value in data set [1] (inhibition of parasite growth, strain not named in the sentence (table: Dd2 and 3D7)) was “twelve-fold more active than fosmidomycin”. In addition, the “in vitro antimalarial activity relative to FR900098” value in data set [1] (strain not named in the sentence (table: Dd2 and 3D7)) is “exceeds the activity of FR900098”.

As to `CC(=O)N(O)CCC(c1ccc(Cl)cc1)P(=O)(O)O` (centres unmarked) [Compound 2d, 3-(N-hydroxyacetamido)-1-(4-chlorophenyl)propylphosphonic acid], the concentration for half-maximal inhibition (IC50) in data set [1] (setting [6]) is 0.095 µM; in data set [2] (Plasmodium falciparum), 0.35 µM.

As to `CC(=O)N(O)CCC(c1ccc(Cl)c(Cl)c1)P(=O)(O)O` (centres unmarked) [Compound 2e, 3-(N-hydroxyacetamido)-1-(3,4-dichlorophenyl)propylphosphonic acid], the concentration for half-maximal inhibition (IC50) in data set [1] (setting [6]) turned out to be 0.09 µM; in data set [2] (Plasmodium falciparum) it was 0.25 µM.

Regarding `CC(=O)N(O)CCC(c1ccc(C#N)cc1)P(=O)(O)O.N.N` (centres unmarked) [Compound 104b, Bisammonium 3-[N-acetyl. N-(hydroxy)amino]-1-(4-cyanophenyl)-propylphosphonate], in data set [1], the “activity in the Dd2 cell line with respect to the reference compounds fosmidomycin and FR900098” value is reported as “substantial higher activity”.

As to `N#Cc1ccc(C(CCN(O)C=O)P(=O)(O)O)cc1` (centres unmarked) [Compound 105, 3-[N-formyl,N-(hydroxy)amino]-1-(4-cyanophenyl)-propylphosphonic acid], the “activity in the Dd2 cell line with respect to the reference compounds fosmidomycin and FR900098” value in data set [1] is “substantial higher activity”.

`CC(=O)N(O)CCCP(=O)(O)O` [FR900098, reference compound]: the IC50 was determined as 0.18 µM in data set [1] (P. falciparum strain Dd2, intraerythrocytic stages, read-out: IC50 (μM) Dd2) and 0.32 µM in data set [2]. For the same compound, the “activity relative to fosmidomycin against Plasmodium falciparum in vitro” value with Plasmodium falciparum is given as “approximately twice more active than fosmidomycin”. For the same compound, the “activity relative to fosmidomycin in Plasmodium vinckei mouse model” value with Plasmodium vinckei is reported as “approximately twice more active than fosmidomycin”.

Take `O=CN(O)CCCP(=O)(O)O` [fosmidomycin]: the concentration for half-maximal inhibition (IC50) in data set [1] (setting [6]) is 0.36 µM. This compound returned a concentration for half-maximal inhibition (IC50) in data set [2] (Plasmodium falciparum) of 1.1 µM. Besides, in data set [3], the plasma half-life result is listed as “short” and the resorption rate entry is on record as “moderate”. Further, the “treatment of patients suffering from acute, uncomplicated Plasmodium falciparum malaria” value in data set [4] is given as “proved to be efficient”.

Consider `CC(=O)N(O)CCC(c1ccccc1)P(=O)(O)O.OCCNCCO` (stereo not drawn) [α-phenyl-FR900098 diethanolammonium salt], for which, in data set [5], the “IC50 value relative to FR900098” value was “higher than FR900098”.

Take `O=CN(O)CCC(c1ccccc1)P(=O)(O)O.OCCNCCO` (stereo not drawn) [α-phenyl-fosmidomycin diethanolammonium salt]: the “IC50 value relative to fosmidomycin (times less)” value in data set [5] is given as 4.5 times.
